According to the supplement of paper PMC10883282:
± gives the standard deviation of the averaged measurements.

System: SW982
Test: relative viability vs DMSO control (72 h) (fraction); higher = more viable cells
Outline: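 Sarcoma cell lines went into 384-well plates at densities chosen to reach 80–90% confluence. After 24 h, each well received 2.5 µl of serially diluted compound, with source plates running from 10 mM to 0.0002 mM, and the plates were kept 72 h at 37 °C, 5% CO2, alongside 0.1% DMSO vehicle and a 5 µM positive control. Relative viability was derived from ATPLite readings as percent growth and averaged over up to triplicate wells. The data were then rescaled so that 1 stands for full and 0 for none.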

SMILES	relative viability (2 pM)	relative viability (5 pM)	relative viability (15 pM)	relative viability (50 pM)	relative viability (0.00014 µM)	relative viability (0.00041 µM)	relative viability (0.0012 µM)	relative viability (0.0037 µM)	relative viability (0.011 µM)	relative viability (200 fM)	relative viability (600 fM)	relative viability (0.00017 µM)	relative viability (0.00051 µM)	relative viability (0.00152 µM)	relative viability (0.00457 µM)	relative viability (0.01372 µM)	relative viability (0.04115 µM)	relative viability (0.1235 µM)	relative viability (0.3704 µM)	relative viability (1.111 µM)	relative viability (3.333 µM)	relative viability (10 µM)
COc1cc2c(cc1O)CCN[C@]21CS[C@@H]2c3c(OC(C)=O)c(C)c4c(c3[C@H](COC1=O)N1[C@@H]2[C@H]2c3c(cc(C)c(OC)c3O)C[C@@H]([C@@H]1O)N2C)OCO4 [Trabectedin]	0.929 ± 0.036	0.86 ± 0.035	0.765 ± 0.031	0.639 ± 0.034	0.385 ± 0.021	0.266 ± 0.0099	0.194 ± 0.0051	0.186 ± 0.0075	0.1406 ± 0.00098	0.987 ± 0.031	0.9423 ± 0.004	–	–	–	–	–	–	–	–	–	–	–
Nc1cc(C(F)(F)F)c(-c2cc(N3CCOCC3)nc(N3CCOCC3)n2)cn1 [Buparlisib]	–	–	–	–	–	–	–	–	–	–	–	1 ± 0.025	1 ± 0.033	1.04 ± 0.031	1.03 ± 0.049	1.04 ± 0.011	1.02 ± 0.041	0.983 ± 0.035	0.86 ± 0.02	0.405 ± 0.033	0.146 ± 0.0066	0.0979 ± 0.0037
CC(C)NC(=O)C1CCC(n2c(NC(=O)c3ccc(F)cc3)nc3ccc(CN4CCC(C(C)(C)O)CC4)cc32)CC1 (centres undefined) [Belizatinib]	–	–	–	–	–	–	–	–	–	–	–	1.09 ± 0.024	1.06 ± 0.023	1.05 ± 0.037	1.06 ± 0.03	1.06 ± 0.02	1.03 ± 0.054	0.974 ± 0.048	0.766 ± 0.045	0.383 ± 0.035	0.173 ± 0.011	0.0273 ± 0.0064
N#CC[C@H](C1CCCC1)n1cc(-c2ncnc3[nH]ccc23)cn1 [Ruxolitinib]	–	–	–	–	–	–	–	–	–	–	–	0.96 ± 0.072	0.971 ± 0.05	0.964 ± 0.049	0.949 ± 0.054	0.939 ± 0.058	0.919 ± 0.061	0.915 ± 0.019	0.879 ± 0.02	0.842 ± 0.015	0.7741 ± 0.005	0.614 ± 0.022
